Here are results for 1 compound from patent publication US20260116867A1, “PROTEOLYSIS TARGETING CHIMERAS FOR HUMAN PREGNANE X RECEPTOR AND FOR DEGRADATION OF GSPT1” (ST. JUDE CHILDREN'S RESEARCH HOSPITAL, priority 2022, published 2026).

One series has as its target T1, PXR (Homo sapiens, UniProt O75469).
T1 sequence (O75469 1-434): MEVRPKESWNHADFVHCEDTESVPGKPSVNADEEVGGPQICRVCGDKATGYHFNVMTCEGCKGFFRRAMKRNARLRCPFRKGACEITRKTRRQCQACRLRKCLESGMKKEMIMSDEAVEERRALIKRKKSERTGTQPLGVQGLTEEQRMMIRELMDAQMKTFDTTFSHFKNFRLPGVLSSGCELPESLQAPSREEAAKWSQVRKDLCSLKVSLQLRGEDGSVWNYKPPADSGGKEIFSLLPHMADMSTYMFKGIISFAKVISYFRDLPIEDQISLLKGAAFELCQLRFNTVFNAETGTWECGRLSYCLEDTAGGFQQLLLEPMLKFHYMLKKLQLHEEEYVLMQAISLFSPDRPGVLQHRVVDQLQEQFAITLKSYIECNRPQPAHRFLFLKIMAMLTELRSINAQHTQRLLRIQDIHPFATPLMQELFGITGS
Put plainly: cell-based hPXR inverse agonistic assay.

In another series the test system is PXR RNA. Put plainly: PXR RNA level in SNU—C4 3xFLAG-PXR KI cells. Type of series: cell-based, human.
Series [1] concerns SNU—C4 3xFLAG-PXR KI cells. Put plainly: TMT-MS whole-proteome quantification in SNU—C4 3xFLAG-PXR KI cells. Particulars: 5 μM, 12 h vs DMSO; 9,692 proteins detected. Type of series: cell-based, human. Here is the method: The next day, 0.5% DMSO or 5 μM SJPYT-195 was added to triplicate dishes. After 12 h, the media were removed, cells were washed twice with ice cold PBS, 500 μL of 50 mM HEPES (pH 8.0) and 8 M urea was added to each dish, cells were scraped and transferred to 1.5 mL tubes, and the tubes were frozen on dry ice and stored at −80° C. Processing for TMT-MS was conducted according to a previously optimized protocol. To profile the whole proteome, the cell lysates (approximately 100 μg of protein per sample) were proteolyzed with Lys-C(Wako) at an enzyme-to-substrate ratio of 1:100 (w/w) for 3 h at room temperature. Samples were diluted with 50 mM HEPES (pH 8.5) to a final 2 M urea concentration. […]
Dried peptides were resuspended in 50 μL 100 mM HEPES (pH 8.5) and labeled with TMTpro 16plex Label Reagents [Thermo Fisher Scientific, 10 μg/μL in 100% ACN, 1:2 (w/w) ratio, room temperature for 1 h]. […] Fractions were dried in SpeedVac and resuspended in 5 μL 5% FA/1% trifluoroacetic acid immediately prior to mass spectrometry and quantitation analysis. […]
MS raw files were converted to mzXML files, and database searches were performed against Uniprot HUMAN protein database using our in-house developed JUMP pipeline. […] TMT-based quantification and statistical analysis were performed based on our previous method. […]

As to `COc1ccc(OC)c(-n2nnc(C(=O)Nc3cc(Oc4cccc5c4C(=O)N(C4CCC(=O)NC4=O)C5=O)cc(C(C)(C)C)c3)c2C)c1` (centres unmarked) [Compound M4, N-(3-(tert-butyl)-5-((2-(2,6-dioxopiperidin-3-yl)-1,3-dioxoisoindolin-4-yl)oxy)phenyl)-1-(2,5-dimethoxyphenyl)-5-methyl-1H-1,2,3-triazole-4-carboxamide], the inhibition at 10 µM on PXR (read-out: Inverse agonist (% inhibition at 10 μM)) was determined as 133%. For the same compound, the IC50 on PXR (read-out: Inverse agonist (IC50/μM)) was 0.18 ± 0.055 µM. The “reduction of PXR RNA” value in the series with PXR RNA (5 μM, 12 h) is “negligible reduction”. Also, in the series on PXR RNA (time-course, FIG. 5C), the “PXR RNA level” value is on record as “drastically reduced PXR RNA level”. For the same compound, the “proteins changed at whole-proteome scale (selectivity)” value in series [1] is “five down-regulated proteins (GSPT1, GSPT2, ZFP91, CYP1A1, and BRIP1) and one upregulated protein (FOS)”.

For orientation: inhibition means the relative decrease from the control value, in per cent.
